Data set [1] concerns breast carcinoma MDA-MB-453 cells. The data set can be described thus: MTT proliferation assay, MDA-MB-453 breast carcinoma. The format is cell-based, human. The conditions noted are these: Catalase 3000 U/ml; 10% FBS; 72 hours; mean±SE vs control. The method, then:
Measurement of Proliferation in Cell Cultures. […] This assay empirically distinguishes between dead and living cells.
Cell Culture Treatments. The effect of antioxidant treatments on proliferation of malignant cell lines was studied in cultures stimulated with 10% FBS. Cell numbers were quantitated by the MTT assay 24-72 hours later. In some experiments, antioxidants were added immediately after cells were plated. In other experiments, cells were plated and allowed to grow for 24 hours before fresh media with antioxidants was added, and cell numbers were studied by the MTT assay 48 hours later.
Cells stimulated with 10% FBS were plated at a density of 50,000 cells per well. DMSO and antioxidants were added to cell wells at the indicated concentrations. […] Each value represents a mean of at least 4 experiments.
Background: Tetrazolium assays rely on reduction of a dye to a coloured formazan, in cell work by metabolically active cells.

For data set [2], the system named is M1619 cells. The data set can be described thus: Apoptosis by TdT fluorescein end-labeling (FragEL). The conditions noted are these: 3000 U/ml catalase for 24 hours; vs DNase-treated positive control. Type of data set: cell-based, human. Here is the method:
(§1) Measurement of Cytotoxicity and Apoptosis. To assess for cytotoxicity, near confluent cells cultured in 24 well plates were exposed to antioxidants or withdrawn from serum for 24 hours. Medium was removed, and replaced with Dulbecco=s phosphate buffered saline (DPBS) containing 0.1% trypan blue. […] To assess for apoptosis, cells grown on glass slides were treated with antioxidants for 24 hours. Apoptosis was studied by terminal deoxynucleotidyl transferase (TdT) dependent 3′BOH fluorescein end-labeling of DNA fragments, using a Fluorescein-FragEL™ DNA fragmentation detection kit (Oncogene Research Products, Cambridge, Mass.). DNase-treated fixed cells were used as a positive control.
Apoptosis was studied by terminal deoxynucleotidyl transferase (TdT) dependent 3′BOH fluorescein end-labeling of DNA fragments, using a Fluorescein-FragE™ DNA fragmentation detection kit (Oncogene Research Products).

The test system of data set [3] is M1619 cells. The data set is described as follows: Cytotoxicity by trypan blue. Type of data set: cell-based. Conditions: catalase treatment; 24 hours. The method, then: as §1
In data set [4] the test system is NF-κB. The data set is described as follows: EMSA of constitutive nuclear NF-κB DNA binding, M1619. Conditions: 24 hours, catalase 3,000 U/ml, NAC 20 mM, Ebselen 25 μM, dicumarol 250 μM. Type of data set: cell-based, human. An excerpt: Electrophoretic Mobility Shift Assays (EMSAs). […] J. Respir.
On the technique in general: A gel shift assay detects complexes by their altered migration in electrophoresis.

Data set [5] has as its system NF-κB. The data set can be described thus: EMSA of constitutive nuclear NF-κB DNA binding, M1585. The format is cell-based, human. The conditions noted are these: M1585 melanoma; catalase 3,000 U/ml for 24 hours. The method, then: The effect of antioxidants on nuclear activation of NF-κB was studied by incubating near confluent (70%) cell cultures with antioxidant treatments for 1-48 hours. Nuclear protein was harvested, and EMSAs were performed using DNA consensus binding sequences, or nuclear translocation of the p65 component of NF-κB was studied by immunoperoxidase staining, as outlined below.
Electrophoretic Mobility Shift Assays (EMSAs). Nuclear protein was isolated and DNA binding reactions were performed as previously described in detail, Kennedy et al., Am. J. Respir. Cell Mol. Biol. 19:366-378 (1998). Monolayers were washed twice in cold DPBS and equilibrated 10 min on ice with 0.7 ml cold cytoplasmic extraction buffer, CEB (10 mM Tris, pH 7.9, 60 mM KCl, 1 mM EDTA, 1 mM DTT) with protease inhibitors, PI (1 mM Pefabloc, 50 μg/ml antipain, 1 μg/ml leupeptin, 1 μg/ml pepstatin, 40 μg/ml bestatin, 3 μg/ml E-64 and 100 μg/ml chymostatin). […] DNA-protein binding reactions were performed with 2 μg of nuclear protein (as determined by the Pierce method) and 30-80,000 cpm of ^32P-end-labelled double-stranded DNA probe in 10 mM Tris-HCl, pH 7.5, 50 mM NaCl, 0.5 mM EDTA, 0.5 mM DTT, 1 mM MgCl2, 50 μg/ml poly dI-dC, and 4% glycerol. […] Gels were dried and analyzed by autoradiography at −80° C. using an image intensifier screen. […]

Take Catalase: the “Percent Growth Inhibition” value in data set [1] turned out to be 49 ± 2. Moreover, the Induction of apoptosis result in the data set on M1619 cells [2] was “did not induce apoptosis”. Also, the “trypan blue dye exclusion” value in the data set on M1619 cells [3] is reported as “significantly increased”. Also, the “constitutive NF-κB DNA binding activity in nuclear protein” value in the data set with NF-κB [4] is reported as “substantially reduced”. Besides, the “constitutive nuclear DNA binding activity for NF-κB” value in the data set with NF-κB [5] is “suppressed”.

The record behind these values is patent US20070142462A1, “Method of Treating Cancer” (The University of Utah, priority 2000, published 2007).
